Experimental data from ChEMBL document CHEMBL5316313, “Discovery of Novel 3-Phenylpiperidine Derivatives Targeting the β-Catenin/B-Cell Lymphoma 9 Interaction as a Single Agent and in Combination with the Anti-PD-1 Antibody for the Treatment of Colorectal Cancer” (J Med Chem, 2023).

Tests used:
[1] = target: T1, beta-catenin-B-cell lymphoma 9 protein complex (Homo sapiens, UniProt P35222); test: Inhibition of N-terminal His6-tagged full-length recombinant beta-catenin (1 to 781 residues) (unknown origin) expressed in Escherichia coli BL21 DE3/N-terminal FAM tagged BCL9 HD2(350 to 375 residues) (unknown origin) protein-protein interaction assessed as inhibition constant incubated for 3 hrs by competitive fluorescence polarization assay
T1 sequence (P35222 whole entry): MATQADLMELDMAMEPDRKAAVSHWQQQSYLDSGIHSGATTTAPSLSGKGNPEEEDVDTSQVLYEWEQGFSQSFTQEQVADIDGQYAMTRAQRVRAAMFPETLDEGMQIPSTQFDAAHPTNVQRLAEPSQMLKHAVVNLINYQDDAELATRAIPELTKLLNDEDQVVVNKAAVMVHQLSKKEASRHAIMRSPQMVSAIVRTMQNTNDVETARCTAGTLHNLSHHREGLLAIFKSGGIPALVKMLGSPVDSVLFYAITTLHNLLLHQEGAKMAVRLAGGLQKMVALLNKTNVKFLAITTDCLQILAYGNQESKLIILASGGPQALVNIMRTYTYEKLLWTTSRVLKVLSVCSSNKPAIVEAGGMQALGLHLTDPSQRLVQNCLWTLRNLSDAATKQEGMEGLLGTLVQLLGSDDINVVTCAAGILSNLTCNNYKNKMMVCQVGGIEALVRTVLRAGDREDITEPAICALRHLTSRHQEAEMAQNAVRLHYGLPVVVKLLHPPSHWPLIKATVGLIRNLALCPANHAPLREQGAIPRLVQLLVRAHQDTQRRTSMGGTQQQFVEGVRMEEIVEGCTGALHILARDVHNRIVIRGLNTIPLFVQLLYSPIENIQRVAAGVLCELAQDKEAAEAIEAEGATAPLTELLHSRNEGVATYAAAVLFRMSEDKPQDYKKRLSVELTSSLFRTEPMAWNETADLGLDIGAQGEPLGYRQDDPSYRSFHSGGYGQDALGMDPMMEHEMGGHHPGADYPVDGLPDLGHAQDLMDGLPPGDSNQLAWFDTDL
T1 sequence (O00512 whole entry): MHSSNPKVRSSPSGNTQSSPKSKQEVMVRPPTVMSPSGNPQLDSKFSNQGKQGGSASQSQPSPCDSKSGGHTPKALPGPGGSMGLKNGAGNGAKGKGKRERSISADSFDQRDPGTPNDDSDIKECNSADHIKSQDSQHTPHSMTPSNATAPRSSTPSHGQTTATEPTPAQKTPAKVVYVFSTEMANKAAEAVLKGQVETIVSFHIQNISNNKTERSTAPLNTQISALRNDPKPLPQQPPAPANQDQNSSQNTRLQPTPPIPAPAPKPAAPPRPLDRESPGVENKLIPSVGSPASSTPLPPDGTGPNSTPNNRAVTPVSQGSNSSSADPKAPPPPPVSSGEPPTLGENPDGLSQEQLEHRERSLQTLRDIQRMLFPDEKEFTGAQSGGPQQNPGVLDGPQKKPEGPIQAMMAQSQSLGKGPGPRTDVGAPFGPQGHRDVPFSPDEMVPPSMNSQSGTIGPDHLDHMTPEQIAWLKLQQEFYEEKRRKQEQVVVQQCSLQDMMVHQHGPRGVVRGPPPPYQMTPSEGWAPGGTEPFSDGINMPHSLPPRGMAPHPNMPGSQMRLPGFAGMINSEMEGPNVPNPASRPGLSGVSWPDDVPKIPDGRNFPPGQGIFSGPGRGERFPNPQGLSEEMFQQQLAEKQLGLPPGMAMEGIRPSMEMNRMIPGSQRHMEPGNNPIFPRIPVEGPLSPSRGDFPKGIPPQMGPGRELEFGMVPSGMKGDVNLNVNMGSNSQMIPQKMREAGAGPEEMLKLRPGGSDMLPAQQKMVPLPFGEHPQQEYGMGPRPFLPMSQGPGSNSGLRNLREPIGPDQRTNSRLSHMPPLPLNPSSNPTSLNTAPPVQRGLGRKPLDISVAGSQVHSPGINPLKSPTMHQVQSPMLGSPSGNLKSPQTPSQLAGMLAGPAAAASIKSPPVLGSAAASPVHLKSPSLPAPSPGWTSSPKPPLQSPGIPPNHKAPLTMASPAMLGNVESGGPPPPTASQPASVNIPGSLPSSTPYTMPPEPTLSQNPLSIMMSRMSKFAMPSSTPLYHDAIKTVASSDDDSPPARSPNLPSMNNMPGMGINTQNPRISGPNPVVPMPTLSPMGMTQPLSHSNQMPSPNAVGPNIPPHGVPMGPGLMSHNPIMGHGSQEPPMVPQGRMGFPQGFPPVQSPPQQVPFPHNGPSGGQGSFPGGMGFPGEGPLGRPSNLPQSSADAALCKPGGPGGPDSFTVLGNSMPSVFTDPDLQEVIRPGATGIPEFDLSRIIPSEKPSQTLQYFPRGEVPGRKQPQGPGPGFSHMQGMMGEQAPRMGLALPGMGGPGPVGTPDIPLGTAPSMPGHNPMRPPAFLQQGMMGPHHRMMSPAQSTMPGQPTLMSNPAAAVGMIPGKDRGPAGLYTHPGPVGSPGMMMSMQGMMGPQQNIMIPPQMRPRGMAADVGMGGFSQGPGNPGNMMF

[2] = Microsomal stability in human liver microsomes assessed as intrinsic clearance at […] and measured upto 60 mins by LC-MS/MS analysis; type: ADME, Microsome; conditions: read-out: CLH
[3] = Microsomal stability in mouse liver microsomes assessed as intrinsic clearance at […] and measured upto 60 mins by LC-MS/MS analysis; type: ADME, Microsome; conditions: read-out: CLH
[4] = Microsomal stability in human liver microsomes assessed as half life at […] and measured upto 60 mins by LC-MS/MS analysis; type: ADME, Microsome
[5] = Microsomal stability in mouse liver microsomes assessed as half life at […] and measured upto 60 mins by LC-MS/MS analysis; type: ADME, Microsome
[6] = target: T1, beta-catenin-B-cell lymphoma 9 protein complex; test: Inhibition of beta-catenin/BCL9 protein-protein interaction in Wnt-dependent human HCT-116 cells assessed as reduction in Axin2 expression level by qRT-PCR assay; type: cell-based
[7] = target: T1, beta-catenin-B-cell lymphoma 9 protein complex; test: Inhibition of full-length recombinant beta-catenin (1 to 781 residues) (unknown origin)/N-terminal biotinylated BCL9-HD2 (unknown origin) protein-protein interaction assessed as inhibition constant incubated for 90 mins by AlphaScreen assay; type: protein-complex assay
[8] = target: T1, beta-catenin-B-cell lymphoma 9 protein complex; test: Inhibition of FLAG tagged human beta-catenin/FLAG-tagged human BCL9 HD2 (343 to 396 residues) expressed in Escherichia coli BL21 protein-protein interaction assessed as inhibition constant by ELISA
[9] = target: T1, beta-catenin-B-cell lymphoma 9 protein complex; test: Inhibition of beta-catenin (unknown origin)/human BCL9 (350 to 375 residues) protein-protein interaction assessed as inhibition constant by AlphaScreen assay; type: protein-complex assay

Compound | IC50 [1] | IC50 [6] | also measured
CC(C)c1ccc(-c2cccc(S(=O)(=O)N3CCCC(c4cccc(OC(C)(C)C(=O)NS(=O)(=O)c5cccs5)c4)C3)c2)cc1 (stereo not given) |  |  | microsomal CLint [2]: 225 µL/min/mg; microsomal CLint [3]: 241 µL/min/mg; half-life [4]: 6.17 min; half-life [5]: 5.75 min
Cc1ccc(-c2cccc(S(=O)(=O)N3CCCC(c4cccc(OC(C)(C)C(=O)O)c4)C3)c2)cc1C (stereo not given) | 4.63 µM |  | 
CC(C)(Oc1cccc(C2CCCN(S(=O)(=O)c3cccc(-c4ccsc4)c3)C2)c1)C(=O)O (stereo not given) | 4 µM |  | 
CC(C)c1ccc(-c2cccc(S(=O)(=O)N3CCCC(c4cccc(OC(C)(C)C(=O)NS(=O)(=O)c5ccc(C#N)cc5)c4)C3)c2)cc1 (stereo not given) | 1.86 µM | 1.49 µM | 
CC(C)c1ccc(-c2cccc(S(=O)(=O)N3CCCC(c4cccc(OC(C)(C)C(=O)NS(=O)(=O)c5ccc(OC(F)(F)F)cc5)c4)C3)c2)cc1 (stereo not given) | 1 µM | 1.19 µM | 
COc1ccc(COC(=O)N2CCCC(c3cccc(OC(C)(C)C(=O)O)c3)C2)cc1OC (stereo not given) | 6.8 µM |  | 
CC1CCCN(CCCNC(=O)C2=Cc3sc4c(c3CS2)CCCC4)C1 (stereo not given) |  |  | Ki [7]: 9 µM
CC(C)c1ccc(-c2cccc(C(=O)N3CCCC(c4cccc(OC(C)(C)C(=O)O)c4)C3)c2)cc1 (stereo not given) | > 10 µM |  | 
CC(C)c1cc2c(c(O)c1O)[C@@]1(C(=O)O)CCCC(C)(C)[C@@H]1CC2 [CARNOSIC ACID] |  |  | Ki [8]: 3.3 µM
CC(C)c1ccc(-c2cccc(S(=O)(=O)N3CCCC(c4cccc(OC(C)(C)C(=O)NCc5ccccc5)c4)C3)c2)cc1 (stereo not given) | 3.76 µM | 10 µM | 
CC(C)(Oc1cccc(C2CCCN(C(=O)OCc3ccc(F)cc3F)C2)c1)C(=O)O (stereo not given) | 5.19 µM |  | 
CC(C)(Oc1cccc(C2CCCN(C(=O)OCc3ccc4ncccc4c3)C2)c1)C(=O)O (stereo not given) | > 10 µM |  | 
CC(C)c1ccc(-c2cccc(S(=O)(=O)N3CCCC(c4cccc(OC(C)(C)C(=O)NS(=O)(=O)c5ccccc5)c4)C3)c2)cc1 (stereo not given) | 1.18 µM | 1.1 µM | microsomal CLint [2]: 160 µL/min/mg; microsomal CLint [3]: 70 µL/min/mg; half-life [4]: 8.67 min; half-life [5]: 19.8 min
CC(C)c1ccc(COC(=O)N2CCC(c3cccc(OC(C)(C)C(=O)O)c3)CC2)cc1 | 4.86 µM |  | 
CC(C)c1ccc(-c2cccc(S(=O)(=O)N3CCC[C@H](c4cccc(OC(C)(C)C(=O)NS(=O)(=O)c5ccc(C(F)(F)F)cc5)c4)C3)c2)cc1 |  |  | microsomal CLint [2]: 63.6 µL/min/mg; microsomal CLint [3]: 36.8 µL/min/mg; half-life [4]: 21.8 min; half-life [5]: 37.7 min
CC(C)c1ccc(CNC(=O)N2CCCC(c3cccc(OC(C)(C)C(=O)O)c3)C2)cc1 (stereo not given) | 8.62 µM |  | 
O=C(Nc1ccc(O[C@@H]2CCNC2)c(-c2ccc(F)cc2)c1)c1ccc(O[C@H]2CCNC2)c(-c2ccc(F)c(F)c2)c1 |  |  | Ki [9]: 2.1 µM
CC(C)(Oc1cccc(C2CCCN(S(=O)(=O)c3cccc(-c4cccs4)c3)C2)c1)C(=O)O (stereo not given) | > 10 µM |  | 
CC(=O)Nc1ccc(S(=O)(=O)NC(=O)C(C)(C)Oc2cccc(C3CCCN(S(=O)(=O)c4cccc(-c5ccc(C(C)C)cc5)c4)C3)c2)cc1 (stereo not given) | 0.89 µM | 2.93 µM | 
CC(C)(Oc1cccc(C2CCCN(C(=O)OCc3ccc4ccccc4c3)C2)c1)C(=O)O (stereo not given) | > 10 µM |  | 
CC(C)c1ccc(-c2cccc(S(=O)(=O)N3CCC[C@@H](c4cccc(OC(C)(C)C(=O)NS(=O)(=O)c5ccc(C(F)(F)F)cc5)c4)C3)c2)cc1 |  |  | microsomal CLint [2]: 20 µL/min/mg; microsomal CLint [3]: 93.4 µL/min/mg; half-life [4]: 69.3 min; half-life [5]: 14.8 min
CC(C)(Oc1cccc(C2CCCN(C(=O)OCC3CCCCC3)C2)c1)C(=O)O (stereo not given) | 3.9 µM | > 10 µM | 
CC(C)c1cccc(-c2cccc(S(=O)(=O)N3CCCC(c4cccc(OC(C)(C)C(=O)O)c4)C3)c2)c1 (stereo not given) | 4.27 µM |  | 
CC(C)(Oc1cccc(C2CCCN(C(=O)OCc3ccc(C(C)(C)C)cc3)C2)c1)C(=O)O (stereo not given) | > 10 µM |  | 

Now from value to compound, other results behind:

IC50 [1] | IC50 [6] | Compound | also measured
8.3 µM |  | CC(C)(Oc1cccc(C2CCCN(S(=O)(=O)c3cccc(-c4ccccc4)c3)C2)c1)C(=O)O (stereo not given) | 
5.27 µM |  | COc1ccc(COC(=O)N2CCCC(c3cccc(OC(C)(C)C(=O)O)c3)C2)cc1 (stereo not given) | 
5.21 µM |  | COC(=O)C(C)(C)Oc1cccc(C2CCCN(C(=O)OCc3ccc(C(C)C)cc3)C2)c1 (stereo not given) | 
4.2 µM |  | Cc1ccc(COC(=O)N2CCCC(c3cccc(OC(C)(C)C(=O)O)c3)C2)cc1C (stereo not given) | 
6.7 µM |  | Cc1ccc(COC(=O)N2CCCC(c3cccc(OC(C)(C)C(=O)O)c3)C2)cc1 (stereo not given) | 
3.14 µM | 1.31 µM | CC(C)(Oc1cccc(C2CCCN(S(=O)(=O)c3cccc(-c4ccc(C(C)(C)C)cc4)c3)C2)c1)C(=O)O (stereo not given) | 
2.47 µM | 1.33 µM | CC(C)c1ccc(-c2cccc(S(=O)(=O)N3CCCC(c4cccc(OC(C)(C)C(=O)NS(=O)(=O)c5cccc(C(F)(F)F)c5)c4)C3)c2)cc1 (stereo not given) | 
5.39 µM |  | CC(C)c1ccc(/C=C/C(=O)N2CCCC(c3cccc(OC(C)(C)C(=O)O)c3)C2)cc1 (stereo not given) | 
4.47 µM |  | COc1ccc(S(=O)(=O)NC(=O)C(C)(C)Oc2cccc(C3CCCN(S(=O)(=O)c4cccc(-c5ccc(C(C)C)cc5)c4)C3)c2)cc1 (stereo not given) | 
1.58 µM | 2.26 µM | CC(C)c1ccc(-c2cccc(S(=O)(=O)N3CCCC(c4cccc(OC(C)(C)C(=O)O)c4)C3)c2)cc1 (stereo not given) | 
4.32 µM |  | CC(C)(Oc1cccc(C2CCCN(C(=O)OCc3ccc(F)c(F)c3)C2)c1)C(=O)O (stereo not given) | 
3.27 µM | 3.58 µM | CC(C)(Oc1cccc(C2CCCN(S(=O)(=O)c3cccc(-c4ccc5ccsc5c4)c3)C2)c1)C(=O)O (stereo not given) | 
> 10 µM |  | CC(C)(Oc1cccc(C2CCCN(S(=O)(=O)c3cccc(C4CCCCC4)c3)C2)c1)C(=O)O (stereo not given) | 
> 10 µM |  | CC(C)(Oc1cccc(C2CCCN(S(=O)(=O)c3cccc(-c4ccc(F)c(F)c4)c3)C2)c1)C(=O)O (stereo not given) | 
1.27 µM | 1.13 µM | CC(C)c1ccc(-c2cccc(S(=O)(=O)N3CCCC(c4cccc(OC(C)(C)C(=O)NS(=O)(=O)c5cccc(C#N)c5)c4)C3)c2)cc1 (stereo not given) | 
1.18 µM | 1.36 µM | CC(C)c1ccc(-c2cccc(S(=O)(=O)N3CCCC(c4cccc(OC(C)(C)C(=O)NS(=O)(=O)c5ccc(C(F)(F)F)cc5Cl)c4)C3)c2)cc1 (stereo not given) | 
